{
  "source": "patent US8129417B2",
  "about": "“Substituted octahydrocyclopenta[C]pyrrol-4-amines as calcium channel blockers” (Abbott Laboratories, priority 2008, dated 2012)",
  "data": [
    {"biological_target": "human Cav2.2 (Homo sapiens, UniProt Q00975)", "sequence (Q00975 whole entry)": "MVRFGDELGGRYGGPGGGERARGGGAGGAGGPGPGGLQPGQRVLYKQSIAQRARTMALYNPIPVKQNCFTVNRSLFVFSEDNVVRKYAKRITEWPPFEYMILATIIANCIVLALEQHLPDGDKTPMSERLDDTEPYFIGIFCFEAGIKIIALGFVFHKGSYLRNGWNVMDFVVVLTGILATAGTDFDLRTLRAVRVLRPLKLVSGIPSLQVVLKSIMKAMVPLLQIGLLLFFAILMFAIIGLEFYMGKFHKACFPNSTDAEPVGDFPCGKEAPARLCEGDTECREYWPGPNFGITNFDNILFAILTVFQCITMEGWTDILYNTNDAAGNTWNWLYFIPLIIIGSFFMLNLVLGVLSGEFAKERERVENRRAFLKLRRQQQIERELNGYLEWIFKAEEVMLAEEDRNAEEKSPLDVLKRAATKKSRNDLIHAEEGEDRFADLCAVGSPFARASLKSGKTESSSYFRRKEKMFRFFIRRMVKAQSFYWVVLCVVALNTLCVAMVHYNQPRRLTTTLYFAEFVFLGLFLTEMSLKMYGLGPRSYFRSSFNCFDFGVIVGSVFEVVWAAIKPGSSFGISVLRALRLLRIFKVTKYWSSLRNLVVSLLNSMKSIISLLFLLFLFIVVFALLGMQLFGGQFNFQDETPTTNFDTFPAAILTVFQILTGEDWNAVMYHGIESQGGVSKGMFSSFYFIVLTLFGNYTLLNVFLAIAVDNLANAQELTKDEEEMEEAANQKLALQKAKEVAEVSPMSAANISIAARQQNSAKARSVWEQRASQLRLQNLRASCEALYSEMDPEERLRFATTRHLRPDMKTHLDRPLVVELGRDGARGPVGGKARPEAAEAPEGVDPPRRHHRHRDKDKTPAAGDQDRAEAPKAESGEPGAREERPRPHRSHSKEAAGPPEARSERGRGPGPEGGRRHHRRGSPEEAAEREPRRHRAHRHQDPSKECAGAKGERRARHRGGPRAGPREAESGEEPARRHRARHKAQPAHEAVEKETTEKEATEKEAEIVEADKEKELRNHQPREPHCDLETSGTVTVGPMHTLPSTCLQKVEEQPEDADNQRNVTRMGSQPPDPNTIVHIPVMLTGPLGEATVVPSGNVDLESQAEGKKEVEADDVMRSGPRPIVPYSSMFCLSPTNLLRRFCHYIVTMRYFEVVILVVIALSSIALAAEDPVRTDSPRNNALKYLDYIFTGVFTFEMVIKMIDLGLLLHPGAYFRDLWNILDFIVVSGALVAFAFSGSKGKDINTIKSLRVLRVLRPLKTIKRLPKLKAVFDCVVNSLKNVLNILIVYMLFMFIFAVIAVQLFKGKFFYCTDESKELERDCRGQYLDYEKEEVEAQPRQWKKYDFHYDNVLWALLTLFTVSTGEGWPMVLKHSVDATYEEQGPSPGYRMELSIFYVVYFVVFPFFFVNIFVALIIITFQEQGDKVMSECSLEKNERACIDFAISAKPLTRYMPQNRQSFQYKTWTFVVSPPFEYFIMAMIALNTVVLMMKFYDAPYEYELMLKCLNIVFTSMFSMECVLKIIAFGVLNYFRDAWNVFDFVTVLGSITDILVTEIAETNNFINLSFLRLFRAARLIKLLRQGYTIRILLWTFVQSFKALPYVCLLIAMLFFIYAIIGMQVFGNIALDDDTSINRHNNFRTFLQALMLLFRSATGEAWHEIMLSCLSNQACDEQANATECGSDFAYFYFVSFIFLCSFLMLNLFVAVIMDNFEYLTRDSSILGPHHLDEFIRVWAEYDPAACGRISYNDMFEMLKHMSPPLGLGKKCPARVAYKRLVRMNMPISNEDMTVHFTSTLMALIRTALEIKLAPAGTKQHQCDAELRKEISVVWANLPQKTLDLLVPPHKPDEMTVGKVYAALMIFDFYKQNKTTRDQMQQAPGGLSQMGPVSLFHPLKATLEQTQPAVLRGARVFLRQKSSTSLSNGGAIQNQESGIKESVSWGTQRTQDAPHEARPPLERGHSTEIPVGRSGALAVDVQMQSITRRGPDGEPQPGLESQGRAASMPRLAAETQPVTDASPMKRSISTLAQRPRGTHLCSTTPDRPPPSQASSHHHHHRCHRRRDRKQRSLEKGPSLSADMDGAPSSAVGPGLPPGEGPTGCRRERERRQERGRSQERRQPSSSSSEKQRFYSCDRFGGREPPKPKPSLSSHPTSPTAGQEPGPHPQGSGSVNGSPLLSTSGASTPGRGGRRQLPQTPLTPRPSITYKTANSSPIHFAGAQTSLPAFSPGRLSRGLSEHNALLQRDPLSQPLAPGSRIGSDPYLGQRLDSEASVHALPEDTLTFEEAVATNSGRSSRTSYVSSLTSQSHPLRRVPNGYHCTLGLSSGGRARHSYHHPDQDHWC", "sequence (P54289 25-946 partner limits assumed)": "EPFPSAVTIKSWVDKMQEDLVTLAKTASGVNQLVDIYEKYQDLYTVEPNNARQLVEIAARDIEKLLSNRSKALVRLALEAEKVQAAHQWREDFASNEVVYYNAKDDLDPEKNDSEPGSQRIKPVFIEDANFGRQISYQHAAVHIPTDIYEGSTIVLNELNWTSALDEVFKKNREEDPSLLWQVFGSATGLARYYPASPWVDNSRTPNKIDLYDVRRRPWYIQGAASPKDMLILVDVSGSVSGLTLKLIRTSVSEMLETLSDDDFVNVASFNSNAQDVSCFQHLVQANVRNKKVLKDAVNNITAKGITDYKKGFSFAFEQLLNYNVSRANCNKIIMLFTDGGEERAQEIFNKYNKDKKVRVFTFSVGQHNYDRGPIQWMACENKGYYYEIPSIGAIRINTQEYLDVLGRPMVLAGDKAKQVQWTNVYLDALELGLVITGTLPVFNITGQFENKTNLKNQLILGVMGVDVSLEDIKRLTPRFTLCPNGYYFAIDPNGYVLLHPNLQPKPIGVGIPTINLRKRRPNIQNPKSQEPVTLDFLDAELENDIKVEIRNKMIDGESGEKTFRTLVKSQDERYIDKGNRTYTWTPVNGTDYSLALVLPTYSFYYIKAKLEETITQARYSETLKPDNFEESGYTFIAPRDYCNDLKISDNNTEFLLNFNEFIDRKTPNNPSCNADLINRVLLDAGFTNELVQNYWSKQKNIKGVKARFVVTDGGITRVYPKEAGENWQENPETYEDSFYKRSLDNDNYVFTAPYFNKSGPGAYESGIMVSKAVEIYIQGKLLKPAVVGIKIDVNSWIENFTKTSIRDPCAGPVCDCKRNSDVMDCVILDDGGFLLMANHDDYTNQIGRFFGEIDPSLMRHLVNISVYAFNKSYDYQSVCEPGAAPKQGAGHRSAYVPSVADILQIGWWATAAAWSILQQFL", "sequence (P54289 947-1103 partner limits assumed)": "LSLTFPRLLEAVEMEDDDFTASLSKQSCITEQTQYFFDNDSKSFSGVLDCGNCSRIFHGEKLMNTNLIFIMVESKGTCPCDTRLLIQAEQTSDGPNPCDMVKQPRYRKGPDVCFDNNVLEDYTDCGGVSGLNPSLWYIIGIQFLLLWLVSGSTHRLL", "sequence (P54284 whole entry partner)": "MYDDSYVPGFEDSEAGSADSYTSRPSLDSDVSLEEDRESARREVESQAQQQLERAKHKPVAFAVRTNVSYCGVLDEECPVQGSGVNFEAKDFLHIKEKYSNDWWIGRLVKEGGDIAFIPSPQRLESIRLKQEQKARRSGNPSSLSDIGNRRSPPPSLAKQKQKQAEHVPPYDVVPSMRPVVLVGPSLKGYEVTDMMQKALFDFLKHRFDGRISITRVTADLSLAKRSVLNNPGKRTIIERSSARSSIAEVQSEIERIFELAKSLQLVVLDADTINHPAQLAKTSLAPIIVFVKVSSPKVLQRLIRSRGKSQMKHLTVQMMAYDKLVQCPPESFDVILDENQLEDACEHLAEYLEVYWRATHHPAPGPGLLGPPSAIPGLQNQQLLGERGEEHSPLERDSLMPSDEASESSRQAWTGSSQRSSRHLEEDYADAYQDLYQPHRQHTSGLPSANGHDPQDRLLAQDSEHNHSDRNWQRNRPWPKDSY", "experiment": "Assessment of calcium channel activity using FLIPR (Ca2+ influx in IMR32 cells)", "type": "cell-based", "conditions": "60 minute pre-incubation with compound, 2 μM nifedipine, depolarized with 80 mM KCl", "how_it_was_run": "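IC50 came from sigmoidal non-linear regression of percent inhibition, relative to uninhibited activity, across compound concentrations. Calcium influx was measured by FLIPR in IMR32 cells plated at 1-1.2×10^5 cells/well and cultured 48 h at 37 °C.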", "units": {"IC50": "µM"}, "values": [
      {"smiles": "CN[C@@H](CC1CCCCC1)C(=O)N[C@H]1CC[C@@H]2CN(S(=O)(=O)c3ccc(C(F)(F)F)cc3)C[C@@H]21", "note": "[Example 427, 3-cyclohexyl-N^2-methyl-N^1-((3aR,4S,6aS)-2-{[4-(trifluoromethyl)phenyl]sulfonyl}octahydrocyclopenta[c]pyrrol-4-yl)-L-alaninamide]", "IC50": 6.45},
      {"smiles": "CC(C)(C)C[C@H](N)C(=O)N[C@H]1CC[C@@H]2CN(S(=O)(=O)c3cc(C(F)(F)F)ccc3Cl)C[C@@H]21", "note": "[Example 428, N^1-((3aR,4S,6aS)-2-{[2-chloro-5-(trifluoromethyl)phenyl]sulfonyl}octahydrocyclopenta[c]pyrrol-4-yl)-4-methyl-L-leucinamide]", "IC50": 2.31},
      {"smiles": "CC(C)(C)C[C@H](N)C(=O)N[C@H]1CC[C@@H]2CN(S(=O)(=O)c3ccc(C(F)(F)F)cc3Cl)C[C@@H]21", "note": "[Example 429, N^1-((3aR,4S,6aS)-2-{[2-chloro-4-(trifluoromethyl)phenyl]sulfonyl}octahydrocyclopenta[c]pyrrol-4-yl)-4-methyl-L-leucinamide]", "IC50": 0.96},
      {"smiles": "CN[C@@H](CC(C)(C)C)C(=O)N[C@H]1CC[C@@H]2CN(S(=O)(=O)c3ccc(C(F)(F)F)cc3Cl)C[C@@H]21", "note": "[Example 431, N^1-((3aR,4S,6aS)-2-{[2-chloro-4-(trifluoromethyl)phenyl]sulfonyl}octahydrocyclopenta[c]pyrrol-4-yl)-N^2,4-dimethyl-L-leucinamide]", "IC50": 0.58},
      {"smiles": "CN[C@@H](CC(C)(C)C)C(=O)N(C1CC1)[C@H]1CC[C@@H]2CN(S(=O)(=O)c3ccc(C(F)(F)F)cc3)C[C@@H]21", "note": "[Example 433, N^1-cyclopropyl-N^2,4-dimethyl-N^1-((3aR,4S,6aS)-2-{[4-(trifluoromethyl)phenyl]sulfonyl}octahydrocyclopenta[c]pyrrol-4-yl)-L-leucinamide]", "IC50": 1.26},
      {"smiles": "CCN(C(=O)[C@H](CC(C)(C)C)NC)[C@H]1CC[C@@H]2CN(S(=O)(=O)c3ccc(C(F)(F)F)cc3)C[C@@H]21", "note": "[Example 434, N^1-ethyl-N^2,4-dimethyl-N^1-((3aR,4S,6aS)-2-{[4-(trifluoromethyl)phenyl]sulfonyl}octahydrocyclopenta[c]pyrrol-4-yl)-L-leucinamide]", "IC50": 2.7},
      {"smiles": "CCCN(C(=O)[C@H](CC(C)(C)C)NC)[C@H]1CC[C@@H]2CN(S(=O)(=O)c3ccc(C(F)(F)F)cc3)C[C@@H]21", "note": "[Example 435, N^2,4-dimethyl-N^1-propyl-N^1-((3aR,4S,6aS)-2-{[4-(trifluoromethyl)phenyl]sulfonyl}octahydrocyclopenta[c]pyrrol-4-yl)-L-leucinamide]", "IC50": 2.32},
      {"smiles": "CN[C@@H](CC(C)(C)C)C(=O)N(CC1CC1)[C@H]1CC[C@@H]2CN(S(=O)(=O)c3ccc(C(F)(F)F)cc3)C[C@@H]21", "note": "[Example 436, N^1-(cyclopropylmethyl)-N^2,4-dimethyl-N^1-((3aR,4S,6aS)-2-{[4-(trifluoromethyl)phenyl]sulfonyl}octahydrocyclopenta[c]pyrrol-4-yl)-L-leucinamide]", "IC50": 1.77},
      {"smiles": "CN[C@@H](CC(C)(C)C)C(=O)N(C)[C@H]1CC[C@@H]2CN(S(=O)(=O)c3ccc(C(F)(F)F)cc3)C[C@@H]21", "note": "[Example 437, N^1,N^2,4-trimethyl-N^1-((3aR,4S,6aS)-2-{[4-(trifluoromethyl)phenyl]sulfonyl}octahydrocyclopenta[c]pyrrol-4-yl)-L-leucinamide]", "IC50": 2.43},
      {"smiles": "CC(C)(C)C[C@H](N)C(=O)N[C@H]1CC[C@@H]2CN(c3ccc(C(F)(F)F)cn3)C[C@@H]21", "note": "[Example 440, 4-methyl-N^1-{(3aR,4S,6aS)-2-[5-(trifluoromethyl)pyridin-2-yl]octahydrocyclopenta[c]pyrrol-4-yl}-L-leucinamide]", "IC50": 3.19},
      {"smiles": "CC(C)(C)C[C@H](N)C(=O)N[C@H]1CC[C@@H]2CN(c3cccc(C(F)(F)F)n3)C[C@@H]21", "note": "[Example 441, 4-methyl-N^1-{(3aR,4S,6aS)-2-[6-(trifluoromethyl)pyridin-2-yl]octahydrocyclopenta[c]pyrrol-4-yl}-L-leucinamide]", "IC50": 0.37},
      {"smiles": "CN[C@@H](CC(C)C)C(=O)N[C@@H]1CC[C@H]2CN(S(=O)(=O)c3cccc(F)c3)C[C@H]21", "note": "[Example 443, N^1-{(3aS,4R,6aR)-2-[(3-fluorophenyl)sulfonyl]octahydrocyclopenta[c]pyrrol-4-yl}-N^2-methyl-L-leucinamide]", "IC50": 7.68},
      {"smiles": "CN[C@@H](CC(C)C)C(=O)N[C@@H]1CC[C@H]2CN(S(=O)(=O)c3ccc(F)cc3)C[C@H]21", "note": "[Example 444, N^1-{(3aS,4R,6aR)-2-[(4-fluorophenyl)sulfonyl]octahydrocyclopenta[c]pyrrol-4-yl}-N^2-methyl-L-leucinamide]", "IC50": 2.11},
      {"smiles": "CN[C@@H](CC(C)C)C(=O)N[C@@H]1CC[C@H]2CN(S(=O)(=O)c3ccc(F)c(F)c3)C[C@H]21", "note": "[Example 445, N^1-{(3aS,4R,6aR)-2-[(3,4-difluorophenyl)sulfonyl]octahydrocyclopenta[c]pyrrol-4-yl}-N^2-methyl-L-leucinamide]", "IC50": 7.96},
      {"smiles": "CN[C@@H](CC(C)C)C(=O)N[C@@H]1CC[C@H]2CN(S(=O)(=O)c3cc(F)cc(F)c3)C[C@H]21", "note": "[Example 446, N^1-{(3aS,4R,6aR)-2-[(3,5-difluorophenyl)sulfonyl]octahydrocyclopenta[c]pyrrol-4-yl}-N^2-methyl-L-leucinamide]", "IC50": 4.96},
      {"smiles": "CN[C@@H](CC(C)C)C(=O)N[C@@H]1CC[C@H]2CN(S(=O)(=O)c3ccc(Cl)cc3)C[C@H]21", "note": "[Example 447, N^1-{(3aS,4R,6aR)-2-[(4-chlorophenyl)sulfonyl]octahydrocyclopenta[c]pyrrol-4-yl}-N^2-methyl-L-leucinamide]", "IC50": 2.71},
      {"smiles": "CN[C@@H](CC(C)C)C(=O)N[C@@H]1CC[C@H]2CN(Cc3ccc(C(F)(F)F)cc3)C[C@H]21", "note": "[Example 449, N^2-methyl-N^1-{(3aS,4R,6aR)-2-[4-(trifluoromethyl)benzyl]octahydrocyclopenta[c]pyrrol-4-yl}-L-leucinamide]", "IC50": 4.06},
      {"smiles": "CN[C@H](C(=O)N[C@H]1CC[C@@H]2CN(S(=O)(=O)c3ccc(C(F)(F)F)cc3)C[C@@H]21)C(C)C", "note": "[Example 451, N^2-methyl-N^1-((3aR,4S,6aS)-2-{[4-(trifluoromethyl)phenyl]sulfonyl}octahydrocyclopenta[c]pyrrol-4-yl)-L-valinamide]", "IC50": 0.8},
      {"smiles": "CN[C@H](C(=O)N[C@H]1CC[C@@H]2CN(S(=O)(=O)c3ccc(F)cc3)C[C@@H]21)C(C)C", "note": "[Example 452, N^1-{(3aR,4S,6aS)-2-[(4-fluorophenyl)sulfonyl]octahydrocyclopenta[c]pyrrol-4-yl}-N^2-methyl-L-valinamide]", "IC50": 9.12},
      {"smiles": "CC(C)(C)C[C@H](N)C(=O)N[C@H]1CC[C@@H]2CN(S(=O)(=O)c3ccc(F)cc3)C[C@@H]21", "note": "[Example 453, N^1-{(3aR,4S,6aS)-2-[(4-fluorophenyl)sulfonyl]octahydrocyclopenta[c]pyrrol-4-yl}-4-methyl-L-leucinamide]", "IC50": 4.23},
      {"smiles": "CCCC[C@H](NC)C(=O)N[C@H]1CC[C@@H]2CN(S(=O)(=O)c3ccc(F)cc3)C[C@@H]21", "note": "[Example 454, N^1-{(3aR,4S,6aS)-2-[(4-fluorophenyl)sulfonyl]octahydrocyclopenta[c]pyrrol-4-yl}-N^2-methyl-L-norleucinamide]", "IC50": 2.03},
      {"smiles": "CN[C@@H](CC(C)C)C(=O)N[C@H]1CC[C@@H]2CN(S(=O)(=O)c3ccc(F)cc3)C[C@@H]21", "note": "[Example 455, N^1-{(3aR,4S,6aS)-2-[(4-fluorophenyl)sulfonyl]octahydrocyclopenta[c]pyrrol-4-yl}-N^2-methyl-L-leucinamide]", "IC50": 3.03},
      {"smiles": "CCC[C@H](NC)C(=O)N[C@H]1CC[C@H]2CN(S(=O)(=O)c3ccc(C(F)(F)F)cc3)C[C@H]21", "note": "[Example 456, N^2-methyl-N^1-((3aS,4S,6aR)-2-{[4-(trifluoromethyl)phenyl]sulfonyl}octahydrocyclopenta[c]pyrrol-4-yl)-L-norvalinamide]", "IC50": 5.33},
      {"smiles": "CN[C@@H](CC(C)C)C(=O)N[C@H]1CC[C@H]2CN(S(=O)(=O)c3ccc(C(F)(F)F)cc3)C[C@H]21", "note": "[Example 457, N^2-methyl-N^1-((3aS,4S,6aR)-2-{[4-(trifluoromethyl)phenyl]sulfonyl}octahydrocyclopenta[c]pyrrol-4-yl)-L-leucinamide]", "IC50": 3.07},
      {"smiles": "CCC[C@H](NC)C(=O)N[C@H]1CC[C@@H]2CN(CCC(c3ccc(F)cc3)c3ccc(F)cc3)C[C@@H]21", "note": "[Example 458, N^1-{(3aR,4S,6aS)-2-[3,3-bis(4-fluorophenyl)propyl]octahydrocyclopenta[c]pyrrol-4-yl}-N^2-methyl-L-norvalinamide]", "IC50": 3.08},
      {"smiles": "CN[C@@H](CC(C)C)C(=O)N1C[C@H]2CC[C@H](NC(=O)C(c3ccc(F)cc3)c3ccc(F)cc3)[C@H]2C1", "note": "[Example 459, 2,2-bis(4-fluorophenyl)-N-[(3aR,4S,6aS)-2-(N-methyl-L-leucyl)octahydrocyclopenta[c]pyrrol-4-yl]acetamide]", "IC50": 1.62},
      {"smiles": "CCC[C@H](NC)C(=O)N1C[C@H]2CC[C@H](NC(=O)C(c3ccc(F)cc3)c3ccc(F)cc3)[C@H]2C1", "note": "[Example 460, 2,2-bis(4-fluorophenyl)-N-[(3aR,4S,6aS)-2-(N-methyl-L-norvalyl)octahydrocyclopenta[c]pyrrol-4-yl]acetamide]", "IC50": 2.69},
      {"smiles": "CN[C@@H](CC(C)(C)C)C(=O)N1C[C@H]2CC[C@H](NC(=O)C(c3ccc(F)cc3)c3ccc(F)cc3)[C@H]2C1", "note": "[Example 461, N-[(3aR,4S,6aS)-2-(N,4-dimethyl-L-leucyl)octahydrocyclopenta[e]pyrrol-4-yl]-2,2-bis(4-fluorophenyl)acetamide]", "IC50": 1.88},
      {"smiles": "FC(F)(F)c1cccc(CN2C[C@H]3CC[C@H](NC(c4ccccc4)c4ccccc4)[C@H]3C2)c1", "note": "[Example 466, (3aR,4S,6aS)—N-benzhydryl-2-[3-(trifluoromethyl)benzyl]octahydrocyclopenta[c]pyrrol-4-amine]", "IC50": 2.33},
      {"smiles": "CN[C@@H](CC(C)C)C(=O)N[C@@H]1CC[C@H]2CN(C(c3ccccc3)c3ccccc3)C[C@H]21", "note": "[Example 469, N^1-[(3aS,4R,6aR)-2-benzhydryloctahydrocyclopenta[c]pyrrol-4-yl]-N^2-methyl-L-leucinamide]", "IC50": 2.24}
    ]}
  ]
}
